Measured values from ChEMBL document CHEMBL1136841, “Discovery of 2-(alpha-methylbenzylamino) pyrazines as potent Type II inhibitors of FMS” (Bioorg Med Chem Lett, 2009).

Tests used:
Rattus norvegicus [1] = assay: Half life in rat at 5 mg/kg, iv; type: ADME, organism-based; design: dose 5 mg/kg, route intravenous; conditions: in vivo
Rattus norvegicus [2] = assay: Apparent volume of distribution in rat at 5 mg/kg, iv; type: ADME, organism-based; design: dose 5 mg/kg, route intravenous; conditions: in vivo

t1/2 (Rattus norvegicus [1]): 5.9 h
Vz (Rattus norvegicus [2]): 30.2 L/kg
SMILES: Cc1cccc(C(=O)Nc2cccc([C@H](C)Nc3cncc(Cl)n3)c2)c1
